This experiment relates to female mice of the Balb/c strain. Type of experiment: in vivo, mouse. As to the method:
Active cutaneous anaphylaxis on the mouse ear was induced according to the procedure described by Inagaki et al., Japan. J. Pharmacol. 1992, 59:201-208. Female mice of the Balb/c strain were immunized with the ovalbumin antigen in the presence of the adjuvant aluminium hydroxide gel (alum). The immunizations were carried out by intraperitoneal administration of 25 µg of ovalbumin and 1 mg of alum dissolved in 200 µl of PBS. A control group received intraperitoneal injections that only contained 1 mg of alum dissolved in 200 µl of PBS. […] After 30 minutes, the appearance, on the mouse ear, of stained areas in the dermis, with extent and intensity of staining proportional to the quantity of allergen injected, was observed. […] The sample was then stirred and filtered, and finally the amount of dye was determined with a spectrophotometer, taking readings at 620 nm. […] Extraction and quantification of the Evans Blue dye, discharged in the local inflammatory reaction, were carried out as described previously.

Turning to “(H-L-Cys(p-MeOBzl)-D-Arg-D-Thr-D-Tyr)4-L-Lys2-L-Lys-L-Lys-OH [Peptide IB]”, the “Inhibition of skin reaction (%)” value (Dose of Peptide 100 mg/kg intraperitoneally, 30 minutes before ovalbumin) came out at 100%. Also, the “activity greater than the activity of the comparative peptide” value (mouse ear active cutaneous anaphylaxis) is given as “approx. 15 times”.

These data come from patent publication EP1997826A2, “Synthetic ligands for immunoglobulins and pharmaceutical compositions containing them” (Tecnogen S.p.A., priority 2007, dated 2008).
